Experimental data published in article PMC6191185 (Cancer cell, 2018).

Target: T1, CARM1 (co-activator associated arginine methyltransferase 1, PRMT4) (Homo sapiens, UniProt Q86X55)
T1 sequence (Q86X55 2-608): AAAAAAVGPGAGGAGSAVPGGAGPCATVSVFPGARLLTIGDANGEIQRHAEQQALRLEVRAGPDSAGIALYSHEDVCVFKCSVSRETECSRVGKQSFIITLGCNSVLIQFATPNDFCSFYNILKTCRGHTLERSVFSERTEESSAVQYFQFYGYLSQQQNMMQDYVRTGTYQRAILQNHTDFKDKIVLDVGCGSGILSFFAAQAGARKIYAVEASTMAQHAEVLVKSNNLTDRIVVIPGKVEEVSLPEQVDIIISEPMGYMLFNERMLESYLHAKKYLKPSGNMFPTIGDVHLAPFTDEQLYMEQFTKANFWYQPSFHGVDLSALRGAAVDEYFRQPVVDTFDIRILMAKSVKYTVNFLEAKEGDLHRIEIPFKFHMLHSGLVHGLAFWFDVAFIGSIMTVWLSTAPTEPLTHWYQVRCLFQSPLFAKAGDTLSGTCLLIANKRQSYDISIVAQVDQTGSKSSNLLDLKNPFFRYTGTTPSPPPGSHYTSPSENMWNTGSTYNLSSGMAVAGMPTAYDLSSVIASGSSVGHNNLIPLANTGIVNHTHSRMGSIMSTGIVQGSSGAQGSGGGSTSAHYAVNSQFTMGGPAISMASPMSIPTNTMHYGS
Assay: cellular CARM1 substrate methylation
Type: cell-based

IC50: 18 nM
SMILES: CNC[C@@H](O)COc1ccc(Cl)c(-c2nc(-c3c(C)noc3C)c(C)c(N3Cc4cnc(N5CCC5)nc4C3)n2)c1 [EPZ025654]
